Literature values, collected in patent US20240139272A1, “USE OF A SPEARMINT EXTRACT FOR RETINA NEUROTROPHISM” (KEMIN INDUSTRIES, INC., priority 2022, published 2024).
Like-named read-outs stand apart in the source and are kept apart here.

Tested on: male Wistar rats
Conditions: for carrageenan-induced increase in paw volume (FIG. 1): 3 and 6 hours, spearmint extract at all doses, RA at the high dose (50 mg/kg), indomethacin 10 mg/kg

SMILES	paw volume increase compared to baseline (15 mg/kg intraperitoneal, 3 hours) [%]	paw volume increase compared to baseline (15 mg/kg intraperitoneal, 6 hours) [%]	paw volume increase compared to baseline (50 mg/kg intraperitoneal, 3 hours) [%]	paw volume increase compared to baseline (50 mg/kg intraperitoneal, 6 hours) [%]	carrageenan-induced increase in paw volume (FIG. 1)	paw volume increase compared to baseline (10 mg/kg intraperitoneal, 3 hours post-injection of carrageenan) [%]	paw volume increase compared to baseline (10 mg/kg intraperitoneal, 6 hours post-injection of carrageenan) [%]
O=C(/C=C/c1ccc(O)c(O)c1)O[C@H](Cc1ccc(O)c(O)c1)C(=O)O [rosmarinic acid]	20	10	7	5	substantially attenuated	–	–
COc1ccc2c(c1)c(CC(=O)O)c(C)n2C(=O)c1ccc(Cl)cc1 [Indomethacin]	–	–	–	–	substantially attenuated	6	3
